Consider four molecules from patent US9394549B2, “Method for producing useful chemical substance from terephthalic acid potassium salt” (GENARIS, INC., priority 2012, dated 2016).

Each structure is given as a SMILES string.

Series [1] is described as follows: Solubility of terephthalic acid salts in ethylene glycol. It is filed as physicochemical. The settings on record: for concentration of terephthalate in saturated ethylene glycol solvent: heated at 100° C. for 60 minutes, cooled to 30° C. or less, filtered; for solubility: organic solvent or mixture, same method as Example 1. As to the method: 4.15 g of terephthalic acid (0.025 mol) was placed in a 200 mL glass beaker and then 0.050 mol of potassium hydroxide (in a form of granule), 0.050 mol of sodium hydroxide (in a form of granule), or 0.025 mol of potassium hydroxide, and 0.025 mol of sodium hydroxide were placed thereto. Ethylene glycol was filled to obtain a volume of about 100 mL. The resulting mixture was covered with aluminum foil as a lid, heated at 100° C. for 60 minutes while stirred by a hot stirrer, and allowed to cool to 30° C. or less. These solutions were filtered with a filter paper (Grade 540 manufactured by Whatman) to obtain an ethylene glycol solvent saturated with the terephthalate.
The concentration of each of the terephthalates contained in such a solvent was 0.23 M in a dipotassium terephthalate saturated solution, 0.11 M in a disodium terephthalate saturated solution, and 0.20 M in a 1-potassium 4-sodium terephthalate saturated solution.

Series [2] relates to recombinant Escherichia coli strain M7032 (pUXPEaLT_tphA2A3A1_tpaK). Nature of the series: Production of TPA-DHD from terephthalic acid salt in jar fermentor culture. It is filed as cell-based. The settings on record: for Ratio of the capacity in production (TPA-DHD): disodium terephthalate as 100%. As for the experimental part:
Based on the results of Example 1, on the basis of terephthalic acid, potassium hydroxide, sodium hydroxide, 28% ammonium solution and distilled water, 0.6 M dipotassium terephthalate aqueous solution, 0.6 M 1-potassium 4-sodium terephthalate aqueous solution, 0.6 M 1-potassium 4-ammonium terephthalate aqueous solution, and 0.6 M disodium terephthalate aqueous solution were prepared 500 mL each. 30 ml of these terephthalic acid salt solutions and 7 g of glucose were mixed to prepare a glucose and substrate mixed solution.
A TPA-DHD production plasmid pUXPEaLT_tphA2A3A1_tpaK constructed in Reference Example 3 was introduced into Escherichia coli M7032 strain (obtained from CGSC of Yale University) by a transformation method to obtain a recombinant Escherichia coli strain M7032 (pUXPEaLT_tphA2A3A1_tpaK).
This transformant was cultured in 1 ml of LB liquid medium (10 g/l tryptone (manufactured by Difco), 5 g/l dried yeast extract (manufactured by Difco), 10 g/l sodium chloride) containing ampicillin at a final concentration of 100 mg/1 overnight. Next, merely 1% of this overnight culture was inoculated in 10 ml of F6.6W/P100/G2 medium containing ampicillin at a final concentration of 100 mg/I and cultured at 30° C. for 24 hours.
Next, in order to carry out main culture based on this preculture, 65 ml of F6.6W/P10/G1 medium which is a main culture medium was put in an octuple mini jar fermentor (manufactured by ABLE Corporation) and adjusted to 30.2° C.±0.2 and pH 6.9±0.1.
The aeration condition of the jar fermentor culture was adjusted to 1 vvm and the adjustment of the pH of the culture was carried out using an ammonium solution and sulfuric acid. Further, dissolved oxygen in the culture solution was regulated as a saturated oxygen concentration of 100% and controlled with the revolution of stirring blade such that the dissolved oxygen is maintained at 15%, which dissolved oxygen decreasing as bacterial cells grow.
In a main culture medium, 0.1% of preculture was inoculated and cultured in the above condition. When the bacterial cell turbidity reached about 7 at an absorbance of 600 nm, an inducer, m-toluic acid was added such that the final concentration thereof was 1 mM to express a terephthalate 1,2-dioxygenase protein, terephthalate 1,2-dioxygenase reductase protein, and terephthalic acid transporter protein. The glucose concentration was measured with time. When the glucose concentration reached 0, the glucose and substrate mixed solution was administered.
Each of the samples was subjected to analysis in conditions shown in Table 1 by an LC-TOF type mass spectrometer (Waters Corporation, LCT Premier XE). Identification of terephthalic acid was carried out with a combination of retention time of high performance liquid chromatography and an accurate mass value from the mass spectrometer, comparing to a standard sample of terephthalic acid. Among substances appeared as terephthalic acid decreased, TPA-DHD was identified on the basis of a predicted accurate mass value of TPA-DHD. Further, quantification of TPA-DHD was carried out on the basis of a calibration curve prepared from an amount of terephthalic acid decreased and an increase in the peak area of TPA-DHD.
First, 0.6 M dipotassium terephthalate aqueous solution and 0.6 M disodium terephthalate aqueous solution, both of which were prepared in Example 2, were mixed at a ratio of 0:100, 20:80, 25:75, 30:70, 35:65, and 50:50 to prepare each aqueous solution of the terephthalic acid salts. These terephthalic acid salt solutions 30 ml and glucose 7 g were mixed to obtain glucose and substrate mixed solutions.
Using these glucose and substrate mixed solutions, the capacity of recombinant Escherichia coli strain M7032 (pUXPEaLT_tphA2A3A1_tpaK) in production of TPA-DHD was examined by the same method as the method of Example 2. […]

The mark [3] stands for this setting: 0.6 M salt solution as raw material, 48 hours after the start of the main culture.
Setting [4] is: salt from PET in 1-butanol, 35 hours.
Where [5] appears, read: salt obtained by depolymerization of PET in 1-butanol (Example 9), 0.6M, 35 hours.
The mark [6] stands for this setting: salt obtained by depolymerization of PTT (Example 7), 0.6M, 48 hours.

Consider `O=C([O-])c1ccc(C(=O)[O-])cc1.[K+].[Na+]` [1-potassium 4-sodium terephthalate], for which the “solubility in ethylene glycol” value in series [1] was determined as 205 mM. In addition, the TPA-DHD in series [2] (setting [3]) came out at 10.7 g/L; in series [2] (setting [5]), 14.8 g/L; in series [2] (setting [6]) it was 14.3 g/L. For the same molecule, the “Ratio of the capacity in production (TPA-DHD)” value (shortened to “Ratio of the capacity”) in series [2] (48 hours) was 110%; in series [2] (setting [4]), 116%; in series [2] (salt from PTT, 48 hours), 112%.
As a reminder, the solubility is the dissolved amount per volume that the medium holds. For the molecule `O=C([O-])c1ccc(C(=O)[O-])cc1.[K+].[K+]` [Dipotassium terephthalate, dipotassium terephthalate], the “concentration of terephthalate in saturated ethylene glycol solvent” value in series [1] is listed as 0.23 M. Further, the solubility in series [1] is 231 mM. Moreover, the TPA-DHD stood at 11.3 g/L in series [2] (setting [3]), 17.4 g/L in series [2] (setting [5]) and 17.7 g/L in series [2] (setting [6]). Further, the “Ratio of the capacity” value in series [2] (48 hours) was found to be 116%; in series [2] (setting [4]), 136%; in series [2] (salt from PTT, 48 hours), 138%.
Consider `O=C([O-])c1ccc(C(=O)[O-])cc1.[Na+].[Na+]` [Disodium terephthalate, disodium terephthalate, reference compound], for which, in series [1], the “concentration of terephthalate in saturated ethylene glycol solvent” value stood at 0.11 M. Also, the solubility in series [1] is 109 mM. The TPA-DHD in series [2] (setting [3]) was 9.7 g/L; in series [2] (setting [5]), 12.8 g/L; in series [2] (setting [6]), 12.8 g/L. The “Ratio of the capacity” value in series [2] (48 hours) was determined as 100%; in series [2] (setting [4]), 100%; in series [2] (salt from PTT, 48 hours) it was 100%.
As to `N.O=C([O-])c1ccc(C(=O)O)cc1.[K+]` [1-potassium 4-ammonium terephthalate], the TPA-DHD in series [2] (setting [3]) is given as 12.2 g/L. Further, in series [2] (48 hours), the “Ratio of the capacity” value was 126%.
